The numbers were not newly measured in patent US20110008439A1, “DULOXETIN COMPOSITION” (priority 2006, published 2011), which cites them from elsewhere.

SMILES strings stand for the structures.

For the series the following is noted: pH values less than 2.5.

As for `CNCC[C@H](Oc1cccc2ccccc12)c1cccs1` [Duloxetine, duloxetine], the Stability in solution result is reported as “unstable”.
